Results on 25 molecules are retold here after US20070021434A1, “NON-NUCLEOSIDE ANTI-HEPACIVIRUS AGENTS AND USES THEREOF” (Migenix Inc., priority 2005, published 2007).

The structures appear in SMILES notation. Where two headings read alike, the source gives them in different places.

One assay concerns the target HCV RdRp (NS5B) (UniProt P26663). Format: biochemical, hepatitis C virus.
Assay [1] relates to Huh-7 cells, genotype 1b HCV replicon. The assay is described as follows: Inhibition of HCV replication in cell culture, genotype 1b replicon. Format: cell-based, hepatitis C virus. The note with it: for EC50: Huh-7, genotype 1b replicon, intracellular HCV RNA 24 h after 3 daily doses; for Selectivity Index (CC50/EC50): genotype 1b replicon, CC50 by neutral red uptake. As for the experimental part: Test compounds were solubilized at 30 mM in 100% tissue culture grade DMSO (Sigma, Inc.). Aliquots of test compounds sufficient for one daily treatment were made in individual tubes and all material was stored at −20° C. On each day of treatment, daily aliquots of the test compounds were suspended in culture medium at room temperature and immediately added to the cell cultures. Compounds were added to dividing cultures once daily for three days at concentrations ranging from about 30 μM to about 0.0003 μM. Media was changed with each addition of compound. The assays were started when cell cultures were at about 30-50% confluence, and the cells reached confluence during the last day of treatment. The assays included untreated control cultures (six total), and triplicate cultures treated with α-interferon and ribavirin as positive antiviral and toxicity controls.
Intracellular HCV RNA levels and cytotoxicity were assessed in triplicate 24 hours after the last compound dose.

Where [2] appears, read: Hepatitis C virus, Huh-7, 24 h, read-out: EC50.

Sequence of HCV RdRp (NS5B) (P26663 whole entry, looked up): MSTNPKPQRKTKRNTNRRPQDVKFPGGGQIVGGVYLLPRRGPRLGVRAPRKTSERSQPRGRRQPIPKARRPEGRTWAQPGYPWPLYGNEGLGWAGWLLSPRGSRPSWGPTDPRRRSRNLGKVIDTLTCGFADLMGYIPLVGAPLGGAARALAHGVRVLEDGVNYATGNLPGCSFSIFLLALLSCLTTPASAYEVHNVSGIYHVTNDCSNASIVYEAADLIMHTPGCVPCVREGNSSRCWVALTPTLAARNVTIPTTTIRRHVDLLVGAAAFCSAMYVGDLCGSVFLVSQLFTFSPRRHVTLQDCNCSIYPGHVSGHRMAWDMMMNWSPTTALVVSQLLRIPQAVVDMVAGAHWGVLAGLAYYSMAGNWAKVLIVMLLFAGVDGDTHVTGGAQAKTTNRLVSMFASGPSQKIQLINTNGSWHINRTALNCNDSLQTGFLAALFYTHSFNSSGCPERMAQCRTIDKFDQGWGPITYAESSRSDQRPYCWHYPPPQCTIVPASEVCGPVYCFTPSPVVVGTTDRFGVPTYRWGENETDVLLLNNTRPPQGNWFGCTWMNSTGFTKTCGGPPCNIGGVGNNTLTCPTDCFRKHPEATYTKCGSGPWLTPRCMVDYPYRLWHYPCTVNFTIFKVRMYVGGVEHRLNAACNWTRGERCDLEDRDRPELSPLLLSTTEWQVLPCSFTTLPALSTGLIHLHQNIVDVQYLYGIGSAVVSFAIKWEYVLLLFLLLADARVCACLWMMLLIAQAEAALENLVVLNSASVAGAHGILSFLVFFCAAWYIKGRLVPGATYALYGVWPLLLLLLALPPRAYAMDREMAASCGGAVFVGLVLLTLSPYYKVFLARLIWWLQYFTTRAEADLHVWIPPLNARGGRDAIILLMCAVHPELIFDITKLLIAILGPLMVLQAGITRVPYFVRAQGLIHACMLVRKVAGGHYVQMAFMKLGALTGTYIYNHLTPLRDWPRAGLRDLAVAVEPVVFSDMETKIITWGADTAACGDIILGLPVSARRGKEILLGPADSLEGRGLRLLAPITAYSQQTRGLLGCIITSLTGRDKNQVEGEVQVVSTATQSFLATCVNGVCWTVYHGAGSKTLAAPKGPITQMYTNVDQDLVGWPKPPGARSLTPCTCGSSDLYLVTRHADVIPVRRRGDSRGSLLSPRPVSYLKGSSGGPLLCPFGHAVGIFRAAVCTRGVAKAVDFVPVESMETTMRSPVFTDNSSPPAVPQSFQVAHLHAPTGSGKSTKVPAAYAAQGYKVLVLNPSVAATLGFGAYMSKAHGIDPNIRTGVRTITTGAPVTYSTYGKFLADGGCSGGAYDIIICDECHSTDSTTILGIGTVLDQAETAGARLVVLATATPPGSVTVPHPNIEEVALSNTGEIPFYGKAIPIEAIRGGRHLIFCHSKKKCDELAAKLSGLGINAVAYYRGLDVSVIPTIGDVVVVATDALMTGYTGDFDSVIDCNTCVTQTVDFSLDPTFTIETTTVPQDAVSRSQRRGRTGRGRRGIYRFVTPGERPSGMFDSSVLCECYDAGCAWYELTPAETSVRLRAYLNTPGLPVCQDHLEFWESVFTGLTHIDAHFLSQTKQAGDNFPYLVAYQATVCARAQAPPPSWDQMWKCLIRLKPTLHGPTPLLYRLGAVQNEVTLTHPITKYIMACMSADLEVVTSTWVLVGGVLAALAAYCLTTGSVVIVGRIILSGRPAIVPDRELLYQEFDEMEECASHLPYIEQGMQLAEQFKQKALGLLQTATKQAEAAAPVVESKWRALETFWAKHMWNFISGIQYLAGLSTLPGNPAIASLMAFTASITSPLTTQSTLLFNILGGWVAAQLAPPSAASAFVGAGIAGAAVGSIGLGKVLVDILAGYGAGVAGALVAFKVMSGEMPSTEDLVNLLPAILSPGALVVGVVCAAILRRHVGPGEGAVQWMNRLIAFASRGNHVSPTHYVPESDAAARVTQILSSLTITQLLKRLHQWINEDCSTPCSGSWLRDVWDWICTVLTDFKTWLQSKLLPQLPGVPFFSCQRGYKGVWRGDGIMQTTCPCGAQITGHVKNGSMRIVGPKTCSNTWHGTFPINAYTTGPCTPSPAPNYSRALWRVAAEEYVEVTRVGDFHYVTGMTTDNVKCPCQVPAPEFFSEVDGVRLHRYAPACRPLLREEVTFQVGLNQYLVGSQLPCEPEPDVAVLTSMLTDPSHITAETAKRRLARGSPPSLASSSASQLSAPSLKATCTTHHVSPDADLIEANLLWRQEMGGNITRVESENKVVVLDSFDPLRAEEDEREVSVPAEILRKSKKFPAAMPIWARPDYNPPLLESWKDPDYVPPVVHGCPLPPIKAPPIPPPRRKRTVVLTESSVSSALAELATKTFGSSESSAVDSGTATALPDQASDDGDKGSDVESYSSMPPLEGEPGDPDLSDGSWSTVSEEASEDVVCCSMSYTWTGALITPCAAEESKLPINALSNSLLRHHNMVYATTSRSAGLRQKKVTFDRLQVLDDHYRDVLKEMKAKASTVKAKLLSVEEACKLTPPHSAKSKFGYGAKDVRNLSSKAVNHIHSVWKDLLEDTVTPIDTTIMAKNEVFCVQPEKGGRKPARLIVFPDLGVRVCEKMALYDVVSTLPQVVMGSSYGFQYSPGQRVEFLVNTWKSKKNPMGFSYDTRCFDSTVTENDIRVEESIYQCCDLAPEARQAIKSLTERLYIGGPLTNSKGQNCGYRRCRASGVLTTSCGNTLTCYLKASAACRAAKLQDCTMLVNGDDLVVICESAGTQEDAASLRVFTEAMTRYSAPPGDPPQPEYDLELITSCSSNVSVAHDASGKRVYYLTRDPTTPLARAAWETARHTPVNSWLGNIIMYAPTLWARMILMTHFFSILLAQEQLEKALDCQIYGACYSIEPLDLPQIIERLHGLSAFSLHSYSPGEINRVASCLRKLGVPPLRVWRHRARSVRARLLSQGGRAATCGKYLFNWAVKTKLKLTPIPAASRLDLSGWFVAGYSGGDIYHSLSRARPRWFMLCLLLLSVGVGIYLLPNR

What is called IC50 is the concentration that inhibits the measured activity by half. One may read the EC50 as the concentration at which the effect is half-maximal. The molecule `Cc1cc2cc(NC(=O)[C@H](CCCCN)NC(=O)Nc3ccc(-c4ccccc4)cc3)ccc2[nH]1` [Compound 94, (S)-6-AMINO-2-(3-BIPHENYL-4-YL-UREIDO)-HEXANOIC ACID (2-METHYL-1H-INDOL-5-YL)-AMIDE] showed an IC50 against HCV RdRp (NS5B) of less than 10 µM. The half-maximal effective concentration (EC50) in assay [1] (setting [2]) is greater than 2 µM. For the same molecule, the “Selectivity Index (CC50/EC50)” value in assay [1] was less than 20.
For `NCCCC[C@H](NC(=O)Nc1ccc(OCc2ccccc2)cc1)C(=O)Nc1ccc(C2CCCCC2)cc1` [Compound 117, (S)-6-AMINO-2-[3-(4-BENZYLOXY-PHENYL)-UREIDO]-HEXANOIC ACID (4-CYCLOHEXYL-PHENYL)-AMIDE] the same measures were less than 10 µM, greater than 2 µM and less than 20.
For the molecule `NCCCC[C@H](NC(=O)Nc1ccc(-c2ccccc2)cc1)C(=O)Nc1ccc(C2CCCCC2)cc1` [Compound 119, (S)-6-AMINO-2-(3-BIPHENYL-4-YL-UREIDO)-HEXANOIC ACID (4-CYCLOHEXYL-PHENYL)-AMIDE], the IC50 against HCV RdRp (NS5B) was less than 10 µM. For the same molecule, the EC50 in assay [1] (setting [2]) was greater than 2 µM. Besides, the “Selectivity Index (CC50/EC50)” value in assay [1] was less than 20.
For `NCCCCC[C@H](NC(=O)NCc1ccccc1)C(=O)Nc1ccc(C2CCCCC2)cc1` [Compound 120, (S)-7-AMINO-2-(3-BENZYL-UREIDO)-HEPTANOIC ACID (4-CYCLOHEXYL-PHENYL)-AMIDE] the same measures were less than 10 µM, greater than 2 µM and less than 20.
On the same counts, the results for `NCCCCC[C@H](NC(=O)Nc1ccc(OCc2ccccc2)cc1)C(=O)Nc1ccc(C2CCCCC2)cc1` [Compound 121, (S)-7-AMINO-2-[3-(4-BENZYLOXY-PHENYL)-UREIDO]-HEPTANOIC ACID (4-CYCLOHEXYL-PHENYL)-AMIDE] are less than 10 µM, less than 0.5 µM and less than 20.
As to `Cc1ccc(NC(=O)[C@H](CCCCN)NC(=O)Nc2ccc3c(c2)Cc2ccccc2-3)cc1` [Compound 125, (S)-6-AMINO-2-[3-(9H-FLUOREN-2-YL)-UREIDO]-HEXANOIC ACID P-TOLYLAMIDE], the 50% inhibitory concentration (IC50) on HCV RdRp (NS5B) was less than 10 µM. Besides, in assay [1] (read-out: EC50), the EC50 was greater than 2 µM. Also, in assay [1], the “Selectivity Index (CC50/EC50)” value is less than 20.
Turning to `Cc1ccc(NC(=O)C(CCCCN)NC(=O)Nc2cccc(-c3ccccc3)c2)cc1` [Compound 127, (S)-6-AMINO-2-(3-BIPHENYL-3-YL-UREIDO)-HEXANOIC ACID P-TOLYLAMIDE], the IC50 at HCV RdRp (NS5B) was 10 to 50 µM. Further, the EC50 in assay [1] (setting [2]) is greater than 2 µM. In assay [1], the “Selectivity Index (CC50/EC50)” value is reported as less than 20.
For `NCCCC[C@@H](NC(=O)Nc1ccc2c(c1)Cc1ccccc1-2)C(=O)Nc1ccc(C2CCCCC2)cc1` [Compound 137, (R)-6-AMINO-2-[3-(9H-FLUOREN-2-YL)-UREIDO]-HEXANOIC ACID (4-CYCLOHEXYL-PHENYL)-AMIDE] the same measures were less than 10 µM, less than 0.5 µM and 20 to 100.
`NCCCC[C@@H](NC(=O)Nc1ccc(-c2ccccc2)cc1)C(=O)Nc1ccc(C2CCCCC2)cc1` [Compound 142, (R)-6-AMINO-2-(3-BIPHENYL-4-YL-UREIDO)-HEXANOIC ACID (4-CYCLOHEXYL-PHENYL)-AMIDE] gave a half-maximal inhibitory concentration (IC50) against HCV RdRp (NS5B) of less than 10 µM. In assay [1] (setting [2]), the EC50 was less than 0.5 µM. The “Selectivity Index (CC50/EC50)” value in assay [1] was less than 20.
For `Cc1ccc(NC(=O)C(Cc2ccc(CN)cc2)NC(=O)Nc2ccc(-c3ccccc3)cc2)cc1` [Compound 145, (S)-3-(4-AMINOMETHYL-PHENYL)-2-(3-BIPHENYL-4-YL-UREIDO)-N-P-TOLYL-PROPIONAMIDE] the same measures were less than 10 µM, greater than 2 µM and less than 20.
As to `Cc1ccc(NC(=O)C(Cc2ccc(CN)cc2)NC(=O)Nc2ccc(OCc3ccccc3)cc2)cc1` [Compound 146, (S)-3-(4-AMINOMETHYL-PHENYL)-2-[3-(4-BENZYLOXY-PHENYL)-UREIDO]-N-P-TOLYL-PROPIONAMIDE], the concentration for half-maximal inhibition (IC50) on HCV RdRp (NS5B) is less than 10 µM. In addition, the EC50 in assay [1] (setting [2]) was less than 0.5 µM. The “Selectivity Index (CC50/EC50)” value in assay [1] was 20 to 100.
On the same counts, the results for `O=C(CC1CNCCN1C(=O)Nc1ccc(OCc2ccccc2)cc1)Nc1ccc(C2CCCCC2)cc1` (stereo not drawn) [Compound 163, 2-[(4-CYCLOHEXYL-PHENYLCARBAMOYL)-METHYL]-PIPERAZINE-1-CARBOXYLIC ACID (4-BENZYLOXY-PHENYL)-AMIDE] are 10 to 50 µM, less than 0.5 µM and less than 20.
For the molecule `NCCCC[C@@H](NC(=O)Nc1ccc(OCc2ccccc2)cc1)C(=O)Nc1ccc(C2CCCCC2)cc1` [Compound 166, (R)-6-AMINO-2-[3-(4-BENZYLOXY-PHENYL)-UREIDO]-HEXANOIC ACID (4-CYCLOHEXYL-PHENYL)-AMIDE], the 50% inhibitory concentration (IC50) against HCV RdRp (NS5B) is less than 10 µM. Also, the EC50 in assay [1] (setting [2]) is greater than 2 µM. For the same molecule, in assay [1], the “Selectivity Index (CC50/EC50)” value is on record as less than 20.
In the case of `Cc1ccc(NC(=O)[C@@H](CCCCN)NC(=O)Nc2ccc3c(c2)Cc2ccccc2-3)cc1` [Compound 173, (R)-6-AMINO-2-[3-(9H-FLUOREN-2-YL)-UREIDO]-HEXANOIC ACID P-TOLYLAMIDE], on HCV RdRp (NS5B), the half-inhibitory concentration (IC50) is less than 10 µM. Also, in assay [1], the EC50 is 2 to 0.5 μM and the “Selectivity Index (CC50/EC50)” value is recorded as less than 20.
`COC(=O)c1ccc(COc2ccc(NC(=O)NC(CCCCN)C(=O)Nc3ccc(C)cc3)cc2)cc1` [Compound 199, (S)-4-{4-13-(5-AMINO-1-P-TOLYLCARBAMOYL-PENTYL)-UREIDO]-PHENOXYMETHYL}-BENZOIC ACID METHYL ESTER]: the IC50 on HCV RdRp (NS5B) was 10 to 50 µM. Moreover, the EC50 in assay [1] (setting [2]) was in the range of 0.5 to 2 µM. In addition, the “Selectivity Index (CC50/EC50)” value in assay [1] lay in the range of 20 to 100.
For `Cc1cc2cc(NC(=O)[C@H](CCCCN)NC(=O)Nc3ccc4c(c3)Cc3ccccc3-4)ccc2[nH]1` [Compound 207, (S)-6-AMINO-2-[3-(9H-FLUOREN-2-YL)-UREIDO]-HEXANOIC ACID (2-METHYL-1H-INDOL-5-YL)-AMIDE] the same measures were less than 10 µM, greater than 2 µM and less than 20.
On HCV RdRp (NS5B), `Cc1ccc(NC(=O)C(CCCCN)NC(=O)Nc2ccc(-c3nc4ccc(C)cc4s3)cc2)cc1` [Compound 214, (S)-6-AMINO-2-{3-[4-(6-METHYL-BENZOTHIAZOL-2-YL)-PHENYL]-UREIDO}-HEXANOIC ACID P-TOLYLAMIDE] gave an IC50 of less than 10 µM. Also, in assay [1] (setting [2]), the concentration giving a half-maximal response (EC50) was greater than 2 µM. The “Selectivity Index (CC50/EC50)” value in assay [1] was less than 20.
`NCCCC[C@H](NC(=O)OCC1c2ccccc2-c2ccccc21)C(=O)Nc1ccc(CN)cc1` [Compound 228, (S)-[5-AMINO-1-(4-AMINOMETHYL-PHENYLCARBAMOYL)-PENTYL]-CARBAMIC ACID 9H-FLUOREN-9-YLMETHYL ESTER] yielded an IC50 on HCV RdRp (NS5B) of less than 10 µM. This molecule also had an EC50 in assay [1] (Hepatitis C virus, Huh-7, 24 h) of 0.5 µM. Also, the “Selectivity Index (CC50/EC50)” value in assay [1] is recorded as 20 to 100.
On HCV RdRp (NS5B), `Cc1cc2cc(NC(=O)[C@H](CCNC(=O)CN)NC(=O)OCC3c4ccccc4-c4ccccc43)ccc2[nH]1` [Compound 237, (S)-[3-(2-AMINO-ACETYLAMINO)-1-(2-METHYL-1H-INDOL-5-YLCARBAMOYL)-PROPYL]-CARBAMIC ACID 9H-FLUOREN-9-YLMETHYL ESTER] displayed an IC50 of less than 10 µM. Moreover, the 50% effective concentration (EC50) in assay [1] (setting [2]) is greater than 2 µM. In addition, the “Selectivity Index (CC50/EC50)” value in assay [1] was less than 20.
Regarding `Cc1cc2cc(NC(=O)[C@H](CCNC(=O)CN)NC(=O)Nc3ccc4c(c3)Cc3ccccc3-4)ccc2[nH]1` [Compound 240, (S)-4-(2-AMINO-ACETYLAMINO)-2-[3-(9H-FLUOREN-2-YL)-UREIDO]-N-(2-METHYL-1H-INDOL-5-YL)-BUTYRAMIDE], the half-maximal inhibitory concentration (IC50) against HCV RdRp (NS5B) lay in the range of 10 to 50 µM. Further, the EC50 in assay [1] (setting [2]) is greater than 2 µM. Moreover, the “Selectivity Index (CC50/EC50)” value in assay [1] is less than 20.
Consider `Cc1ccc(NC(=O)C[C@H](CCCCN)NC(=O)Nc2ccc(OCc3ccccc3)cc2)cc1` [Compound 246, (S)-7-AMINO-3-[3-(4-BENZYLOXY-PHENYL)-UREIDO]-HEPTANOIC ACID P-TOLYLAMIDE], for which the half-maximal inhibitory concentration (IC50) at HCV RdRp (NS5B) fell in the range of 10 to 50 µM. The EC50 in assay [1] (setting [2]) is greater than 2 µM. Also, the “Selectivity Index (CC50/EC50)” value in assay [1] is less than 20.
`CC1CCC(NC(=O)[C@H](CCCCN)NC(=O)Nc2ccc(OCc3ccccc3)cc2)CC1` (stereo partly drawn) [Compound 264, (S)-6-AMINO-2-[3-(4-BENZYLOXY-PHENYL)-UREIDO]-HEXANOIC ACID (4-METHYL-CYCLOHEXYL)-AMIDE]: the concentration for half-maximal inhibition (IC50) against HCV RdRp (NS5B) is 10 to 50 µM. Further, the half-maximal effective concentration (EC50) in assay [1] (setting [2]) was less than 0.5 µM. For the same molecule, the “Selectivity Index (CC50/EC50)” value in assay [1] is listed as greater than 100.
In turn, `Cc1ccc(NC(=O)C(CNC(=O)CN)NC(=O)Nc2ccc(OCc3ccccc3)cc2)cc1` [Compound 268, (S)-3-(2-AMINO-ACETYLAMINO)-2-[3-(4-BENZYLOXY-PHENYL)-UREIDO]-N-P-TOLYL-PROPIONAMIDE] displayed an IC50 against HCV RdRp (NS5B) of 10 to 50 µM. Also, the half-maximal effective concentration (EC50) in assay [1] (setting [2]) is greater than 2 µM. For the same molecule, the “Selectivity Index (CC50/EC50)” value in assay [1] is less than 20.
On the same counts, the results for `Cc1ccc(NC(=O)C(CCCCN)NC(=O)Nc2ccc(-c3nc4ccccc4o3)cc2)cc1` [Compound 270, (S)-6-AMINO-2-[3-(4-BENZOOXAZOL-2-YL-PHENYL)-UREIDO]-HEXANOIC ACID P-TOLYLAMIDE] are 10 to 50 µM, greater than 2 µM and less than 20.
On the same counts, the results for `Cc1ccc(NC(=O)C(CCCCN)NC(=O)Nc2nnc(COc3ccc(C)cc3)s2)cc1` [Compound 272, (S)-6-AMINO-2-[3-(5-P-TOLYLOXYMETHYL-[1,3,4] THIADIAZOL-2-YL)-UREIDO]-HEXANOIC ACID P-TOLYLAMIDE] are 10 to 50 µM, 0.5 to 2 µM and 20 to 100.
